The IC50 is the concentration at which inhibition is half-maximal. The low end stands for higher potency, the high end for lower potency.

human plasma protein factor Xa, sequence (P00742 41-179): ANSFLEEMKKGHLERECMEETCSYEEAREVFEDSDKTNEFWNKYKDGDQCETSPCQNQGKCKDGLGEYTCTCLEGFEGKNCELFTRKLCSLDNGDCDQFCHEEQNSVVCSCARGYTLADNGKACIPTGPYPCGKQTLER
human plasma protein factor Xa, sequence (P00742 235-488): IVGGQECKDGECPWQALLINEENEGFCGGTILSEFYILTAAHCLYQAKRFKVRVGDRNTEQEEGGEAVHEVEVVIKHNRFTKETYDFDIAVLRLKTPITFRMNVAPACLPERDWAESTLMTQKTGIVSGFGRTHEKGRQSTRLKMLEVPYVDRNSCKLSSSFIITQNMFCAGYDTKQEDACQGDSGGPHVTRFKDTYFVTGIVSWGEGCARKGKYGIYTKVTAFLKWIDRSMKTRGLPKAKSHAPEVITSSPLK

This experiment deals with human plasma protein factor Xa (Homo sapiens (Human), UniProt P00742). As to the kind of experiment: FXa inhibitory activity, IC50 determination (cleavage of paranitroanilide substrate S-2765). It is filed as biochemical. As to conditions: factor Xa 1 nM, S2765 100 μM, Tris buffered saline pH 7.4. An excerpt:
This example illustrates methods for evaluating the compounds, along with results obtained for such assays. As mentioned above, the compound may be selected based on its factor Xa inhibitory activity. The in vitro factor Xa activities of the compounds can be determined by various procedures known in the art. […] The IC50 value is the concentration (in nM) of the compound required to provide 50% inhibition of factor Xa proteolytic activity.
An in vitro assay for detecting and measuring inhibition activity against factor Xa is as follows:
The substrate S-2765 (Z-D-Arg-Gly-Arg-pNA.HCl) can be obtained from Diapharma (West Chester, Ohio).
The human plasma protein factor Xa can be purchased from Haematologic Technologies (Essex Junction, Vt.).
All assays, which are performed in 96-well microtiter plates, measure proteolytic activity of the enzyme (factor Xa) by following cleavage of a paranitroanilide peptide substrate. The assay buffer used for proteolytic assays was Tris buffered saline (20 mM Tris, 150 mM NaCl, 5 mM CaCl2, 0.1% Bovine serum albumin (BSA), 5% dimethly sulfoxide (DMSO) pH 7.4). In a 96-well microtiter plate, inhibitor was serially diluted to give a range of final concentrations from 0.01 nM to 10 μM. Duplicate sets of wells were assayed and control wells without inhibitor were included. Enzyme was added to each well, (factor Xa concentration=1 nM), the plate was shaken for 5 seconds and then incubated for 5 minutes at room temperature. S2765 was added (100 μM final) and the plate was shaken for 5 seconds (final volume in each well was 200 μL). The degree of substrate hydrolysis was measured at 405 nm on a Thermomax plate reader (Molecular Devices, Sunnyvale, Calif.) for 2 minutes. The initial velocities of substrate cleavage (mOD/min), for each range of inhibitor concentrations, were fitted to a four parameter equation using Softmax data analysis software. The parameter C, derived from the resulting curve-fit, corresponded to the concentration for half maximal inhibition (IC50).
With `CS(=O)(=O)c1ccc(C(=O)Nc2ccc(Cl)cc2C(=O)Nc2ccc(Cl)cn2)c(NCCCCCCCN)c1`, inhibition was half-maximal at 320 nM (IC50). The compound `NCCCCCCNc1cc(C(F)(F)F)ccc1C(=O)Nc1ccc(Cl)cc1C(=O)Nc1ccc(Cl)cn1` gave an IC50 of 615 nM. On to `CN(C)C(=N)c1ccc(C(=O)Nc2ccc(OCC(=O)NCCCCCCN)cc2C(=O)Nc2ccc(Cl)cn2)cc1`, for which the IC50 came to 24 nM. In turn, `CS(=O)(=O)c1ccc(C(=O)Nc2ccc(Cl)cc2C(=O)Nc2ccc(Cl)cn2)c(NCCCCCCN)c1` gave an IC50 of 158 nM.

With `CN(C)C(=N)c1ccc(C(=O)Nc2ccc(OCC(=O)NCCCCCCN)cc2C(=O)Nc2ccccn2)cc1`, inhibition was half-maximal at 227 nM (IC50).

The record behind these values is patent publication US9200268B2, “Compounds and methods for purification of serine proteases” (Portola Pharmaceuticals, Inc., priority 2012, dated 2015).
